Measurements as given in ChEMBL document CHEMBL3817837, “Targeting epigenetic reader and eraser: Rational design, synthesis and in vitro evaluation of dimethylisoxazoles derivatives as BRD4/HDAC dual inhibitors” (Bioorg Med Chem Lett, 2016).

Legend:
[1] = tested on: K562; test: Antiproliferative activity against human K562 cells assessed as reduction in cell viability incubated for 72 hrs by Alamar blue assay; type: functional, cell-based; conditions: K562, 72 h
[2] = tested on: MV4-11; test: Antiproliferative activity against human MV4-11 cells assessed as reduction in cell viability incubated for 72 hrs by Alamar blue assay; type: functional, cell-based; conditions: MV4-11, 72 h
[3] = target: T1, Bromodomain-containing protein 9 (Homo sapiens) (UniProt Q9H8M2); test: Binding affinity to human BRD9 expressed in Escherichia coli BL21(DE3)-R3-pRARE2 assessed as change in melting temperature at 25 uM by SYPRO orange based protein stability shift assay
T1 sequence (whole entry): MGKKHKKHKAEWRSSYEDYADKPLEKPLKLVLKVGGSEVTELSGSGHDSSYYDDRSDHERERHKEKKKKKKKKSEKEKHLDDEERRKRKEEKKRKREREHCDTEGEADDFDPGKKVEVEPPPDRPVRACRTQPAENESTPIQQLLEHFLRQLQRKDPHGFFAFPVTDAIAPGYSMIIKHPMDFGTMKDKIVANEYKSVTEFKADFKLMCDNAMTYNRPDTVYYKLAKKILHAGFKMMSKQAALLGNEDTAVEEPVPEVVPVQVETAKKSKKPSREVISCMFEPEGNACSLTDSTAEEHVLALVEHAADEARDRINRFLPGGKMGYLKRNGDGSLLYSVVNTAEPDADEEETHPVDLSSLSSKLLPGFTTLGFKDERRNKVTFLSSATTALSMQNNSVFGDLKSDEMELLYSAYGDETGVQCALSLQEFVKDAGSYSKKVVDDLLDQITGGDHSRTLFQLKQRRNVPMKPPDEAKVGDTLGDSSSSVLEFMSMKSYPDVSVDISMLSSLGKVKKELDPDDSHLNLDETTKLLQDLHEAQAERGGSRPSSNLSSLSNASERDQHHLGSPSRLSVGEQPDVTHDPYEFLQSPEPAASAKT

[4] = target: Chromatin remodeling regulator CECR2 (Homo sapiens) (UniProt Q9BXF3); test: Binding affinity to human CECR2 expressed in Escherichia coli BL21(DE3)-R3-pRARE2 assessed as change in melting temperature at 25 uM by SYPRO orange based protein stability shift assay
[5] = target: CREB-binding protein (Homo sapiens) (UniProt Q92793); test: Binding affinity to human CREBBP expressed in Escherichia coli BL21(DE3)-R3-pRARE2 assessed as change in melting temperature at 25 uM by SYPRO orange based protein stability shift assay
[6] = target: Histone acetyltransferase KAT2B (Homo sapiens) (UniProt Q92831); test: Binding affinity to human PCAF expressed in Escherichia coli BL21(DE3)-R3-pRARE2 assessed as change in melting temperature at 25 uM by SYPRO orange based protein stability shift assay
[7] = target: T2, Bromodomain-containing protein 4 (Homo sapiens, UniProt O60885); test: Inhibition of human BRD4 expressed in Escherichia coli BL21(DE3)-R3-pRARE2 by bromodomain alphascreen peptide displacement assay
[8] = target: Histone deacetylase 1 (Homo sapiens, UniProt Q13547); test: Inhibition of recombinant HDAC1 (unknown origin) using of Fluor-de-Lys substrate incubated for 10 mins by fluorimetric assay
[9] = target: Transcription initiation factor TFIID subunit 1 (Homo sapiens) (UniProt P21675); test: Binding affinity to human TAF1 expressed in Escherichia coli BL21(DE3)-R3-pRARE2 assessed as change in melting temperature at 25 uM by SYPRO orange based protein stability shift assay
[10] = target: T2, Bromodomain-containing protein 4
Description: Binding affinity to human BRD4 expressed in Escherichia coli BL21(DE3)-R3-pRARE2 assessed as change in melting temperature at 25 uM by SYPRO orange based protein stability shift assay

Chain of Transcription initiation factor TFIID subunit 1 (Homo sapiens) (P21675 whole entry): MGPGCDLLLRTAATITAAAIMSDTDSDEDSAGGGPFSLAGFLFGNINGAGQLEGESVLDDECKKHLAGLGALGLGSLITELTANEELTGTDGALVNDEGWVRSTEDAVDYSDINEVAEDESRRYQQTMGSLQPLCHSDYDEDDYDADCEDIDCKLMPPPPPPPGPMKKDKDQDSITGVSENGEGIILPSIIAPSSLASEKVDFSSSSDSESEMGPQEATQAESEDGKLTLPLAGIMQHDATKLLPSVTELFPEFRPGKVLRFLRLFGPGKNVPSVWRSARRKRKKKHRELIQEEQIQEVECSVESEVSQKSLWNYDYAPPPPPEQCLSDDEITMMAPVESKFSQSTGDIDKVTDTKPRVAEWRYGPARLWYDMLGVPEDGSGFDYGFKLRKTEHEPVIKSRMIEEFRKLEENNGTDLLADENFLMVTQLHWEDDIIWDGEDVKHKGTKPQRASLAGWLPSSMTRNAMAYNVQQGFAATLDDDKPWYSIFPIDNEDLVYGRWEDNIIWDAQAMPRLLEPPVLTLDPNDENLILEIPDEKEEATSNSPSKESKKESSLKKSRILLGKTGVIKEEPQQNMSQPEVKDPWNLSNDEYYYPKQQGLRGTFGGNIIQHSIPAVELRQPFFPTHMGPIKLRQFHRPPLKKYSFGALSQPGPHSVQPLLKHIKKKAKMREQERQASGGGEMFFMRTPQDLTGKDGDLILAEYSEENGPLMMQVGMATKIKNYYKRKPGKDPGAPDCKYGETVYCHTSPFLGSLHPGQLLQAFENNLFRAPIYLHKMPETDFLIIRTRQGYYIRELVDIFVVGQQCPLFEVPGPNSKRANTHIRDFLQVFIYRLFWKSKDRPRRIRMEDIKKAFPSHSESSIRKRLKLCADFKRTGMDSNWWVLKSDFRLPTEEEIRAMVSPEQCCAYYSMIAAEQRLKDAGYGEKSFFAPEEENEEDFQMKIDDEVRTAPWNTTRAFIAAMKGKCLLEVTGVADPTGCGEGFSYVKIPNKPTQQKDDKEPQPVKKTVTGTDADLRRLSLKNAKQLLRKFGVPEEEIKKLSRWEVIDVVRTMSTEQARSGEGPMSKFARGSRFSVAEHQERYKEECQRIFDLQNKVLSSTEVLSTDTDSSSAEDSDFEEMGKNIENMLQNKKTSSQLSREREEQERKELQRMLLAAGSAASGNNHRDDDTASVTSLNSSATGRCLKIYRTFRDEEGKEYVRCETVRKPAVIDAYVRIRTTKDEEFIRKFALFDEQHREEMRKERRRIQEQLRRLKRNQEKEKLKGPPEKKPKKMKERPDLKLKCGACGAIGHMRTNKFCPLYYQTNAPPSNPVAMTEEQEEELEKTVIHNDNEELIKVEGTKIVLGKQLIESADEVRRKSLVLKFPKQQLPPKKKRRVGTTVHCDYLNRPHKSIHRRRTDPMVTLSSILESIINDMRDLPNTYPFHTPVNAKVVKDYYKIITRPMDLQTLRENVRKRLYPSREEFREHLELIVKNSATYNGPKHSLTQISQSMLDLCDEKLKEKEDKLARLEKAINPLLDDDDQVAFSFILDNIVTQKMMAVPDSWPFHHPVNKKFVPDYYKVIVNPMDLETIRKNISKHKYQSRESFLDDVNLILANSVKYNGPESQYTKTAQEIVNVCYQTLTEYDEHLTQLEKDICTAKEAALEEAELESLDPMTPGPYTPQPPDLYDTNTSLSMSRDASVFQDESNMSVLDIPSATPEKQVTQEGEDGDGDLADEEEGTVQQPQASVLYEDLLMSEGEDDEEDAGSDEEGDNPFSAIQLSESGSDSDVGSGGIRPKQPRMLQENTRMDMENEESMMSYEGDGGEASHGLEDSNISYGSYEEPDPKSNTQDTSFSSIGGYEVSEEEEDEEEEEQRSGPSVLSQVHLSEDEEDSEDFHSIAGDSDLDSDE
Chain of Histone deacetylase 1 (Q13547 whole entry): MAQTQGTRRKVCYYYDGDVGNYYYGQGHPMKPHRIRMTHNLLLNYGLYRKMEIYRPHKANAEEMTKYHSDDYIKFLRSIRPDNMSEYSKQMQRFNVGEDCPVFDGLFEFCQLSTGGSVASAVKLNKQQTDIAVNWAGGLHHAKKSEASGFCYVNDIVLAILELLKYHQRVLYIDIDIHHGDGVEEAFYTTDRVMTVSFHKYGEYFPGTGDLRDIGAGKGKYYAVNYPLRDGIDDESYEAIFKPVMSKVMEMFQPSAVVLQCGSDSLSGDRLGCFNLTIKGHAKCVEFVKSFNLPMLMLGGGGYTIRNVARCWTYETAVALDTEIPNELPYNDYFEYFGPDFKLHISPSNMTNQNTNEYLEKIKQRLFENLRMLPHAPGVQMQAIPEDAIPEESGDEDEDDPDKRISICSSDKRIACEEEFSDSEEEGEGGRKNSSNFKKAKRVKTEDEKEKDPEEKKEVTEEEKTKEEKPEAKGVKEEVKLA
Chain of Histone acetyltransferase KAT2B (Homo sapiens) (Q92831 whole entry, looked up): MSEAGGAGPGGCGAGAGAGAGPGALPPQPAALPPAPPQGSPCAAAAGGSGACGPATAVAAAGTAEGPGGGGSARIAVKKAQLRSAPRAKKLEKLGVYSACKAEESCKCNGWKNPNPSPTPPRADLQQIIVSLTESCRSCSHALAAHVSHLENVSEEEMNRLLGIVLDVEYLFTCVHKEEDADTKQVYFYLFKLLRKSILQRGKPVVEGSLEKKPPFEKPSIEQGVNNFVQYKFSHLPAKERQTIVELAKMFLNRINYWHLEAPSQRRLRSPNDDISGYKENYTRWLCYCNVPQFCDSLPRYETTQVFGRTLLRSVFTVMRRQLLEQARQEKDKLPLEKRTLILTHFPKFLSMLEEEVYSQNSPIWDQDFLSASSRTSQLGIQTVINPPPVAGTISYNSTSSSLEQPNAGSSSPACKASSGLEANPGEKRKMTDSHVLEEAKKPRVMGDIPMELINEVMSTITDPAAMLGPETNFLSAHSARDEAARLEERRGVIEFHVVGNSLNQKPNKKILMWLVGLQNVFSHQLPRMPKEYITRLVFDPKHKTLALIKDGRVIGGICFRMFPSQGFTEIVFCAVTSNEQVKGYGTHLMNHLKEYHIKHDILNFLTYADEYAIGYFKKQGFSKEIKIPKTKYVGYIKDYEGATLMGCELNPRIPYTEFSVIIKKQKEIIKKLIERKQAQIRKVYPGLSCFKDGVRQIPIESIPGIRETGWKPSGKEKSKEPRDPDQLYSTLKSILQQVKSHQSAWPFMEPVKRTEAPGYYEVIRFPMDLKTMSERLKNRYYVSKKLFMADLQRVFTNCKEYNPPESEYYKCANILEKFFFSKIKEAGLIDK
Chain of Chromatin remodeling regulator CECR2 (Homo sapiens) (Q9BXF3 whole entry, looked up): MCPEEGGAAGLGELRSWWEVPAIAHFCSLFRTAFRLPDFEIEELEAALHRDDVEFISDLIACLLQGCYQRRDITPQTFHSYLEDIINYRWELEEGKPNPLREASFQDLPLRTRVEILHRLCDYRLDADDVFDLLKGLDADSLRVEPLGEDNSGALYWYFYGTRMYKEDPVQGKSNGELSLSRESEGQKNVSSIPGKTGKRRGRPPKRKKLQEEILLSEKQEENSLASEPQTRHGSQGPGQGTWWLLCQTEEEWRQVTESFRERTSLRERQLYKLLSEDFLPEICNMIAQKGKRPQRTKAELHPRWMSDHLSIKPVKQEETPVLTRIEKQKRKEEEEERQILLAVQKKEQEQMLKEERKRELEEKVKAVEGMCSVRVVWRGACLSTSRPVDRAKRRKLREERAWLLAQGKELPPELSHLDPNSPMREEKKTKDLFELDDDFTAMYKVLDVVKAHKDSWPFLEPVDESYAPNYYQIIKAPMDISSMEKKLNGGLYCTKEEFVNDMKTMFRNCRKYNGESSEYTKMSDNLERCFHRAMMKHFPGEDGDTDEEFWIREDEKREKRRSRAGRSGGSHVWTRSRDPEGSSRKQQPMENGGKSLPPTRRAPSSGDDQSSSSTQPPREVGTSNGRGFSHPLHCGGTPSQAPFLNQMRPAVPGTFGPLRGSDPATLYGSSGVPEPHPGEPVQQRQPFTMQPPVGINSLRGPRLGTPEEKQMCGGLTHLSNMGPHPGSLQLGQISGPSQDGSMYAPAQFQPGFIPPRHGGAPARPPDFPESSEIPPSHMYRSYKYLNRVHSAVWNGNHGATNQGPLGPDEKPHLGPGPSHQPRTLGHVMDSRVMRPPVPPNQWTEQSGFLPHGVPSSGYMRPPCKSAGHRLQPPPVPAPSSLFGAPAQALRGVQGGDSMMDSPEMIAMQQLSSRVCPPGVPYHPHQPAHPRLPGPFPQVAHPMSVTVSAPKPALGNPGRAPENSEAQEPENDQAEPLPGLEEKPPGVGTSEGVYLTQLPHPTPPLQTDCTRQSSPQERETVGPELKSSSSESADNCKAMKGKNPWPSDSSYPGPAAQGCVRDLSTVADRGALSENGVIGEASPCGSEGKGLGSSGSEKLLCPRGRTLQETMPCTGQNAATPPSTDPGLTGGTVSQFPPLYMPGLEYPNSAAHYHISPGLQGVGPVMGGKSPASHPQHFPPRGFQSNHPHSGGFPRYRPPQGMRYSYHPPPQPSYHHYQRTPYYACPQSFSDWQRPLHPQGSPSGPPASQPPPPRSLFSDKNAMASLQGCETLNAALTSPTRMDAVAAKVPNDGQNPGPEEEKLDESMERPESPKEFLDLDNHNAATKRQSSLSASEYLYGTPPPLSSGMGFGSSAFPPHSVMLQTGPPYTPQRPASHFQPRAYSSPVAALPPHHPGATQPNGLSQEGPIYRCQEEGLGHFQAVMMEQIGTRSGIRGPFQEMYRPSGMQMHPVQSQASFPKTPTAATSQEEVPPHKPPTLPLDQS

SMILES	IC50 [1] [nM]	IC50 [2] [nM]	ΔTm [3] [°C]	ΔTm [4] [°C]	ΔTm [5] [°C]	ΔTm [6] [°C]	IC50 [7] [nM]	IC50 [8] [nM]	ΔTm [9] [°C]	ΔTm [10] [°C]
Cc1sc2c(c1C)C(c1ccc(Cl)cc1)=N[C@@H](CC(=O)OC(C)(C)C)c1nnc(C)n1-2 (racemic)	640	240								
Cc1noc(C)c1-c1cccc(NC(=O)CCCCCC(=O)NO)c1			-0.13	0.64	0.73	0.05	3730	360	1.08	3.58
Cc1noc(C)c1-c1cc(NC(=O)CCCCCC(=O)NO)cc(C(=O)c2ccccc2)c1	2330	1040	2.26	1.52	2.32	0.92	850	270	1.76	6.37
Cc1noc(C)c1-c1cc(OCCCCCCC(=O)NO)cc(C(O)c2ccccc2)c1 (configuration not stated)			1.55	1.32	4.03	0.35	770	970	1.72	7.53
O=C(CCCCCCC(=O)Nc1ccccc1)NO [VORINOSTAT]	170									
Cc1noc(C)c1-c1cc(OCCCCCCCC(=O)NO)cc(C(=O)c2ccccc2)c1			1.22	2.06	0.65	-0.31	2990	1740	1.77	4.91
Cc1noc(C)c1-c1cc(OCCCCCC(=O)NO)cc(C(=O)c2ccccc2)c1			1.56	1.18	1.69	0.28	1380	1490	1.69	7.54
Cc1noc(C)c1-c1cc(OCCCCC(=O)NO)cc(C(=O)c2ccccc2)c1			-0.75		-0.01	-7.9	1490	5450	1.14	5.89
Cc1noc(C)c1-c1cc(NC(=O)CCCCC(=O)NO)cc(C(=O)c2ccccc2)c1			2.79	1.65	2.05	0.31	780	760	1.95	6.21
Cc1noc(C)c1-c1cc(OCCCCCCC(=O)NO)cc(C(=O)c2ccccc2)c1			1.72		2.13	1.04	1050	1430	2.22	7.41
Cc1noc(C)c1-c1cc(NC(=O)CCCCCCC(=O)NO)cc(C(=O)c2ccccc2)c1	1860	910	2.97	1.96	3.24	1.35	670	150	2.22	7.49
